Source: patent US20220289679A1, “HETEROCYCLIC COMPOUND” (Takeda Pharmaceutical Company Limited, priority 2019, published 2022)

biological target: T1, human GCS (glucosylceramide synthase) (Homo sapiens, UniProt Q16739); assay: Glucosylceramide Synthase (GCS) Assay; format: biochemical; details: test compound 10 μM; microsome fraction of Expi293F cells expressing human GCS; 1.7 μM UDP-glucose, 3 μM C8 ceramide; room temperature 60 min; C8 glucosylceramide by Rapidfire MS/MS
T1 construct: made in house; host or cells: Expi293F cells (transient expression; microsome fraction)
T1 sequence (Q16739 1-394): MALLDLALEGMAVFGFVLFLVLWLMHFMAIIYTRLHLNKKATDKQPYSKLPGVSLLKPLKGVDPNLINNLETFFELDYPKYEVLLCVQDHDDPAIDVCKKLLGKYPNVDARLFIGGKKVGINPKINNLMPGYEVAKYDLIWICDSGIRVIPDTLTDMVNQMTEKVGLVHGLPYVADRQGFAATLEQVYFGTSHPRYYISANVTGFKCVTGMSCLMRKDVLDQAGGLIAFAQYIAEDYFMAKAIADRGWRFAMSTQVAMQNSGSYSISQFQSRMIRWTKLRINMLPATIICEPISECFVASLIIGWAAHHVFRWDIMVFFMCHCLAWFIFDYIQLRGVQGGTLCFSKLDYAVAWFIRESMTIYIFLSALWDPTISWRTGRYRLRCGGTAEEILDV
Protocol: In enzyme assay, a microsome fraction obtained by transient expression by Expi293F™ cells (catalog number: A14527, Thermo Fisher Scientific) was used as a glucosylceramide synthase source. Liposomal C8 ceramide and UDP-glucose were used as substrates. For each substrate concentration, 1.7 μM UDP-glucose, which is equal to the Km value, and 3 μM C8 ceramide were used. After the enzymatic reaction, the analysis was performed with Rapidfire MS/MS (API-4000™, SCIEX), and C8 glucosylceramide was quantified to evaluate the inhibitory activity of the test compound against glucosylceramide synthase activity.
PcDNA3.3TOPO vector (catalog number: K830001, Thermo Fisher Scientific) into which the human GCS gene was inserted was introduced into Expi293F™ Cells (catalog number: A14527, Thermo Fisher Scientific) by using ExpiFectamine™ 293 Transfection Kit (catalog number: A14525, Thermo Fisher Scientific). The cultured cells were dissolved in D-PBS (catalog number: 048-29805, Fuji Film Wako Pure Chemical Industries, Ltd.) containing 1 mM PMSF, and the solution was allowed to stand on ice for 30 minutes, and then subjected to cell disruption (homogenized). The disruption solution was centrifuged at 10,000×g for 20 minutes at 4° C., and the obtained supernatant was centrifuged at 142,400×g for 60 minutes at 4° C. The obtained precipitate was resuspended in a D-PBS solution containing 1 mM PMSF, and homogenized again to prepare as a microsome fraction. Protein quantification was performed by the CBB method.
A 1 mM compound solution prepared by dissolving the test compound in DMSO was added to a 384-well plate by 100 nL so that the final concentration of the test compound was 10 μM. Next, a substrate solution consisting of 3.4 μM UDP-glucose and 6 μM C8 ceramide was added by 5 μL, followed by an enzyme solution consisting of a 25 μg/mL microsome fraction by 5 μL. C8 ceramide was prepared from liposomes composed of 15 mol % C8 ceramide and 85 mol % dioleoyl phosphatidylcholine (1,2-dioleoyl-sn-glycero-3-phosphocholine: DOPC). The enzymatic reaction was carried out in a solution consisting of 20 mM tris-hydrochloric acid buffer (pH 7.5), 0.01% Tween 20, 0.01% bovine serum albumin and 1 mM dithiothreitol at room temperature for 60 min. Then, a solution consisting of 75% isopropanol and 1% formic acid containing 0.25 μM N-Octadecanoyl-D35-psichosine (catalog number: 1914, Matreya) as an internal standard substance was added by 60 μL to stop the enzymatic reaction. 5 μL of the centrifugal supernatant of the obtained reaction product was analyzed by Rapidfire MS/MS (Agilent Technologies) using API-4000™ (SCIEX), and the C8 glucosylceramide was quantified to evaluate the inhibitory activity of the test compound against the glucosylceramide synthase activity. The inhibitory activity of the test compound was evaluated when the C8 glucosylceramide level in the enzyme-free solution was considered as 100% inhibitory and the enzyme activity of the DMSO group in the absence of the compound was considered as 0% inhibitory.

| Compound | GCS enzyme inhibitory rate at 10 μM (%) |
| --- | --- |
| O=C(Nc1ccc(C(O)C2CC2)nc1)c1cccn(-c2ccc(F)cc2OCC(F)(F)F)c1=O (single isomer, unassigned) [Example 116, (R or S)-N-{6-[cyclopropyl(hydroxy)methyl]pyridin-3-yl}-1-[4-fluoro-2-(2,2,2-trifluoroethoxy)phenyl]-2-oxo-1,2-dihydropyridine-3-carboxamide] | 97% |

same assay, conditions: test compound 10 μM; microsome fraction of Expi293F cells expressing human GCS; 1.7 μM UDP-glucose, 3 μM C8 ceramide; room temperature 60 min; C8 glucosylceramide by Rapidfire MS/MS; read-out: GCS enzyme inhibitory rate at 10 μM (%)

| Compound | inhibition at 10 µM |
| --- | --- |
| O=C(Nc1ccc(C(O)(C(F)F)C(F)F)cc1)c1cn(C2CCOC2)nc(-c2ccccc2OCC(F)F)c1=O (racemic) [Example 196, rac-6-[2-(2,2-difluoroethoxy)phenyl]-5-oxo-2-(oxolan-3-yl)-N-[4-(1,1,3,3-tetrafluoro-2-hydroxypropan-2-yl)phenyl]-2,5-dihydropyridazine-4-carboxamide] | 100% |
| CC(O)c1cc(C(=O)Nc2ccc(OC(F)F)cc2)c(=O)n(-c2ccccc2OCC(F)(F)F)n1 (racemic) [Example 199, rac-N-[4-(difluoromethoxy)phenyl]-6-(1-hydroxyethyl)-3-oxo-2-[2-(2,2,2-trifluoroethoxy)phenyl]-2,3-dihydropyridazine-4-carboxamide] | 100% |
| O=C(Nc1ccc(C(O)C2CC2)nc1)c1cccn(-c2ccc(F)cc2OCC(F)(F)F)c1=O (single isomer, unassigned) [Example 115, (R or S)-N-{6-[cyclopropyl(hydroxy)methyl]pyridin-3-yl}-1-[4-fluoro-2-(2,2,2-trifluoroethoxy)phenyl]-2-oxo-1,2-dihydropyridine-3-carboxamide] | 86% |
| COc1ccccc1-n1c(C)ccc(C(=O)Nc2ccc(Oc3ccccc3)cc2)c1=O [Example 1, 1-(2-methoxyphenyl)-6-methyl-2-oxo-N-(4-phenoxyphenyl)-1,2-dihydropyridine-3-carboxamide] | 71% |
| COc1ccccc1-n1cccc(C(=O)Nc2ccc(Oc3ccccc3)cc2)c1=O [Example 2, 1-(2-methoxyphenyl)-2-oxo-N-(4-phenoxyphenyl)-1,2-dihydropyridine-3-carboxamide] | 95% |
| COc1cc(F)ccc1-n1cccc(C(=O)Nc2ccc(Oc3ccccc3)cc2)c1=O [Example 3, 1-(4-fluoro-2-methoxyphenyl)-2-oxo-N-(4-phenoxyphenyl)-1,2-dihydropyridine-3-carboxamide] | 92% |
| O=C(Nc1ccc(Oc2ccccc2)cc1)c1cccn(-c2ccccc2N2CCOCC2)c1=O [Example 4, 1-[2-(morpholin-4-yl)phenyl]-2-oxo-N-(4-phenoxyphenyl)-1,2-dihydropyridine-3-carboxamide] | 93% |
| COc1cc(F)ccc1-n1cccc(C(=O)Nc2ccc(OCC(F)(F)F)nc2)c1=O [Example 5, 1-(4-fluoro-2-methoxyphenyl)-2-oxo-N-[6-(2,2,2-trifluoroethoxy)pyridin-3-yl]-1,2-dihydropyridine-3-carboxamide] | 68% |
| COc1cc(F)ccc1-n1cccc(C(=O)Nc2ccc(OC(F)(F)F)cc2)c1=O [Example 6, 1-(4-fluoro-2-methoxyphenyl)-2-oxo-N-[4-(trifluoromethoxy)phenyl]-1,2-dihydropyridine-3-carboxamide] | 52% |
| COc1cc(F)ccc1-n1cccc(C(=O)Nc2ccc(C3CC3)nc2)c1=O [Example 7, N-(6-cyclopropylpyridin-3-yl)-1-(4-fluoro-2-methoxyphenyl)-2-oxo-1,2-dihydropyridine-3-carboxamide] | 57% |
| COc1cc(F)ccc1-n1cccc(C(=O)Nc2ccn(-c3ccc(F)cc3)n2)c1=O [Example 8, 1-(4-fluoro-2-methoxyphenyl)-N-[1-(4-fluorophenyl)-1H-pyrazol-3-yl]-2-oxo-1,2-dihydropyridine-3-carboxamide] | 66% |
| COc1cc(F)ccc1-n1cccc(C(=O)Nc2ccc(C(F)(F)F)cc2)c1=O [Example 11, 1-(4-fluoro-2-methoxyphenyl)-2-oxo-N-[4-(trifluoromethyl)phenyl]-1,2-dihydropyridine-3-carboxamide] | 88% |
| O=C(Nc1ccn(-c2ccc(F)cc2)n1)c1cccn(-c2ccccc2OCC(F)(F)F)c1=O [Example 12, N-[1-(4-fluorophenyl)-1H-pyrazol-3-yl]-2-oxo-1-[2-(2,2,2-trifluoroethoxy)phenyl]-1,2-dihydropyridine-3-carboxamide] | 97% |
| COc1ccc(NC(=O)c2cccn(-c3ccccc3OCC(F)(F)F)c2=O)cn1 [Example 13, N-(6-methoxypyridin-3-yl)-2-oxo-1-[2-(2,2,2-trifluoroethoxy)phenyl]-1,2-dihydropyridine-3-carboxamide] | 96% |
| O=C(Nc1ccc(Cl)cc1)c1cccn(-c2ccccc2OCC(F)(F)F)c1=O [Example 14, N-(4-chlorophenyl)-2-oxo-1-[2-(2,2,2-trifluoroethoxy)phenyl]-1,2-dihydropyridine-3-carboxamide] | 99% |
| O=C(Nc1ccc(OCC(F)(F)F)nc1)c1cccn(-c2ccccc2OCC(F)(F)F)c1=O [Example 15, 2-oxo-1-[2-(2,2,2-trifluoroethoxy)phenyl]-N-[6-(2,2,2-trifluoroethoxy)pyridin-3-yl]-1,2-dihydropyridine-3-carboxamide] | 100% |
| COc1cc(F)ccc1-n1cccc(C(=O)Nc2ccc(OC(F)F)nc2)c1=O [Example 16, N-[6-(difluoromethoxy)pyridin-3-yl]-1-(4-fluoro-2-methoxyphenyl)-2-oxo-1,2-dihydropyridine-3-carboxamide] | 69% |
| O=C(Nc1ccc(Oc2ccccc2)cc1)c1cccn(-c2ccc(F)cc2N2CCOCC2)c1=O [Example 17, 1-[4-fluoro-2-(morpholin-4-yl)phenyl]-2-oxo-N-(4-phenoxyphenyl)-1,2-dihydropyridine-3-carboxamide] | 81% |
| COc1cc(F)ccc1-n1nccc(C(=O)Nc2ccc(Oc3ccccc3)cc2)c1=O [Example 18, 2-(4-fluoro-2-methoxyphenyl)-3-oxo-N-(4-phenoxyphenyl)-2,3-dihydropyridazine-4-carboxamide] | 76% |
| COc1cc(F)ccc1-n1cccc(C(=O)Nc2ccc(N3CCOCC3)cc2)c1=O [Example 19, 1-(4-fluoro-2-methoxyphenyl)-N-[4-(morpholin-4-yl)phenyl]-2-oxo-1,2-dihydropyridine-3-carboxamide] | 55% |
| O=C(Nc1ccc(C(F)(F)F)nc1)c1cccn(-c2ccccc2OCC(F)(F)F)c1=O [Example 20, 2-oxo-1-[2-(2,2,2-trifluoroethoxy)phenyl]-N-[6-(trifluoromethyl)pyridin-3-yl]-1,2-dihydropyridine-3-carboxamide] | 100% |
| O=C(Nc1ccc(C2CC2)cn1)c1cccn(-c2ccccc2OCC(F)(F)F)c1=O [Example 21, N-(5-cyclopropylpyridin-2-yl)-2-oxo-1-[2-(2,2,2-trifluoroethoxy)phenyl]-1,2-dihydropyridine-3-carboxamide] | 99% |
| O=C(Nc1ccn(CC(F)(F)F)n1)c1cccn(-c2ccccc2OCC(F)(F)F)c1=O [Example 22, 2-oxo-1-[2-(2,2,2-trifluoroethoxy)phenyl]-N-[1-(2,2,2-trifluoroethyl)-1H-pyrazol-3-yl]-1,2-dihydropyridine-3-carboxamide] | 77% |
